In PMC4684994 (Journal of immunology (Baltimore, Md. : 1950), 2015):

What was measured:
[1] = biological target: T1, TRPV4 (transient receptor potential vanilloid 4) (Mus musculus, UniProt Q9EPK8); assay: Calcium influx; assay type: cell-based
[2] = biological target: T1, TRPV4 (transient receptor potential vanilloid 4); assay: Inhibition of GSK1016790A-induced calcium influx; assay type: cell-based

T1 sequence (Q9EPK8 whole entry): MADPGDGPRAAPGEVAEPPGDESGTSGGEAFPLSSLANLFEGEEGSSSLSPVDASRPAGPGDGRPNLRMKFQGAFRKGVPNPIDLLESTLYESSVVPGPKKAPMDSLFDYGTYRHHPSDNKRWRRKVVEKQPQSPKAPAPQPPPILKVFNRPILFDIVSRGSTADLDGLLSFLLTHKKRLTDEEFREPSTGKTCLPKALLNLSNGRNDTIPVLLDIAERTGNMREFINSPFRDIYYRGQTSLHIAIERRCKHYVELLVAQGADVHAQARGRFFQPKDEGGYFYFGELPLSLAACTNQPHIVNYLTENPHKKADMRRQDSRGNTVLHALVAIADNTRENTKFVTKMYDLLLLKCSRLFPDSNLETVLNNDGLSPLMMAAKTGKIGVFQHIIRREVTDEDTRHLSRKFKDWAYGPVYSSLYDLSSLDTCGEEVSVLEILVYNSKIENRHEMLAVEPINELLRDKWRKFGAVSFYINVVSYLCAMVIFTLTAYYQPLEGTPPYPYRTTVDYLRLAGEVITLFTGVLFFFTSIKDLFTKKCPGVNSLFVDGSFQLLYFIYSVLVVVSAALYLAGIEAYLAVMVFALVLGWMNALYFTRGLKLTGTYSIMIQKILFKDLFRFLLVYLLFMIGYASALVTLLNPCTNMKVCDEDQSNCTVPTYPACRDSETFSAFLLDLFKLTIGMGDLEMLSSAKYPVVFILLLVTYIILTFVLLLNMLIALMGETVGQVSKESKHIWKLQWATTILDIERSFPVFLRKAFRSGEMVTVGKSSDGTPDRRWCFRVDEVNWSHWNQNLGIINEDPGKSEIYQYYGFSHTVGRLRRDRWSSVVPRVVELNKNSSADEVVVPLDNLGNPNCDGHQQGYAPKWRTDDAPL

Row | Compound | EC50 [1] [µM] | IC50 [2] [µM]
1 | CC(C)C[C@H](NC(=O)c1cc2ccccc2s1)C(=O)N1CCN(C(=O)[C@H](CO)NS(=O)(=O)c2ccc(Cl)cc2Cl)CC1 [GSK, GSK1016790A] | 0.05 | –
2 | Cc1c(C(=O)Nc2cccc(C(F)(F)F)c2)cc(-c2ccccc2)n1CCCN1CCOCC1 [HC, HC067047] | – | 7
